Structures can show the parent of a compound that is named as a salt.
Molecular target: T1, AR (Homo sapiens, UniProt P10275)
T1 construct: endogenous in cells; host or cells: VCaP cells
T1 sequence (P10275 1-920): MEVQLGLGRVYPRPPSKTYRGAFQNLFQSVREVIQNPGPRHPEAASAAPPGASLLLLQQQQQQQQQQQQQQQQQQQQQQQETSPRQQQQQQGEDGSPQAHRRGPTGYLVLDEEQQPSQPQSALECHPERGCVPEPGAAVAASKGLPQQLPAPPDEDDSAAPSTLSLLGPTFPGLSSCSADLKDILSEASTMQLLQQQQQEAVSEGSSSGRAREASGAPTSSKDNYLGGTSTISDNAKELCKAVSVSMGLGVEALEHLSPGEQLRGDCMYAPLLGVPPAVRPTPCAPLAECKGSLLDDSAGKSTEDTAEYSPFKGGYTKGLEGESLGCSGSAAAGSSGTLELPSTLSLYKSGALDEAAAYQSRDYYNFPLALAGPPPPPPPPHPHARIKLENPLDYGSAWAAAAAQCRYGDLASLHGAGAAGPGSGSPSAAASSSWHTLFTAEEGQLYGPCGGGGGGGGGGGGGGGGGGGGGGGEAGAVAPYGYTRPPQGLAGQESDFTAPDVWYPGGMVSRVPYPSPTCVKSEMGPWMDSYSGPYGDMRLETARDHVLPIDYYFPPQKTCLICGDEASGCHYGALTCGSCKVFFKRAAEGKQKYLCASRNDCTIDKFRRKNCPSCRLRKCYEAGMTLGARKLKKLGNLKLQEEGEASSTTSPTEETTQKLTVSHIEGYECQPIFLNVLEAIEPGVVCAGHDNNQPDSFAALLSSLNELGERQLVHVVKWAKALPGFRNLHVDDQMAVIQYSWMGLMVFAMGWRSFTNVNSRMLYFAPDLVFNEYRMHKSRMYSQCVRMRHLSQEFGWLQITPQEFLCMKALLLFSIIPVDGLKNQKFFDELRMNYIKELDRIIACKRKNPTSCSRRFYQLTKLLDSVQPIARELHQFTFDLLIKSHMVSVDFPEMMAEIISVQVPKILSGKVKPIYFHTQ
Assay: VCAP AR Degradation Assay
Assay type: cell-based
Conditions: for Y (AR degradation efficiency, % of DMSO control): class symbols *; for DC50: class symbols A-C, read-out: DC50
Outline: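 AR protein in lysates quantified by sandwich ELISA after 24 h exposure of VCaP cells at 37 °C to 10 concentrations (1:3 steps, 5 μM top, final). Four-parameter logistic fit of percent-of-DMSO levels gave DC50 (50% degradation), EC50 and minimal AR level Y.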

SMILES | Y (AR degradation efficiency, % of DMSO control) | DC50
C[C@@H]1CN(CCOc2ccc(N3C(=S)N(c4ccc(C#N)c(C(F)(F)F)c4)C(=O)C3(C)C)cc2C2CC2)CCN1CC(=O)Nc1cccc(NC2CCC(=O)NC2=O)c1 (stereo partly drawn) [Example 272, 2-((R)-4-(2-(4-(3-(4-cyano-3-(trifluoromethyl)phenyl)-5,5-dimethyl-4-oxo-2-thioxoimidazolidin-1-yl)-2-cyclopropylphenoxy)ethyl)-2-methylpiperazin-1-yl)-N-(3-(2,6-dioxopiperidin-3-ylamino)phenyl)acetamide] | * (0<Y<=25%) | < 100 nM
N#Cc1ccc(N2C(=O)C3(CCOC3)N(c3ccc(OCCN4CCN(CC(=O)Nc5cc(Cl)cc(NC6CCC(=O)NC6=O)c5)CC4)c(F)c3)C2=S)cc1C(F)(F)F (single isomer, unassigned) [Example 55, N-(3-chloro-5-(2,6-dioxopiperidin-3-ylamino)phenyl)-2-(4-(2-(4-(3-(4-cyano-3 (trifluoromethyl)phenyl)-4-oxo-2-thioxo-7-oxa-1,3-diazaspiro[4.4]nonan-1-yl)-2-fluorophenoxy)ethyl)piperazin-1-yl)acetamide] | ** (25%<Y<=35%) | 100 to 500 nM
CCc1cc(N2C(=S)N(c3ccc(C#N)c(C(F)(F)F)c3)C(=O)C2(C)C)ccc1OCCN1CCN(CC(=O)Nc2cccc(NC3CCC(=O)NC3=O)c2)C[C@H]1C (stereo partly shown) [Example 44] | * (0<Y<=25%) | < 100 nM
CC1(C)C(=O)N(c2cnc(C#N)c(C(F)(F)F)c2)C(=S)N1c1ccc(OCCN2CCN(CC(=O)Nc3cc(NC4CCC(=O)NC4=O)ccc3F)CC2)cc1 (stereo not shown) [Example 86, 2-(4-(2-(4-(3-(6-cyano-5-(trifluoromethyl)pyridin-3-yl)-5,5-dimethyl-4-oxo-2-thioxoimidazolidin-1-yl)phenoxy)ethyl)piperazin-1-yl)-N-(5-(2,6-dioxopiperidin-3-ylamino)-2-fluorophenyl)acetamide] | ** (25%<Y<=35%) | < 100 nM
CCc1cc(N2C(=S)N(c3ccc(C#N)c(C(F)(F)F)c3)C(=O)C2(C)C)ccc1O[C@H](C)CN1C[C@@H](C)N(CC(=O)Nc2cccc(NC3CCC(=O)NC3=O)c2)[C@@H](C)C1 (single isomer, unassigned) [Example 241] | * (0<Y<=25%) | 100 to 500 nM
Cc1c(N2C(=O)C(C)(C)N(c3ccc(OCCN4CCN(CC(=O)Nc5cccc(NC6CCC(=O)NC6=O)c5)CC4)c(F)c3)C2=S)ccc(C#N)c1C(F)(F)F (stereo not shown) [Example 96, 2-(4-(2-(4-(3-(4-cyano-2-methyl-3-(trifluoromethyl)phenyl)-5,5-dimethyl-4-oxo-2-thioxoimidazolidin-1-yl)-2-fluorophenoxy)ethyl)piperazin-1-yl)-N-(3-(2,6-dioxopiperidin-3-ylamino)phenyl)acetamide] | *** (35%<Y<50%) | < 100 nM
CC(C)c1cc(N2C(=S)N(c3ccc(C#N)c(C(F)(F)F)c3)C(=O)C2(C)C)ccc1OCCN1C[C@@H](C)N(CC(=O)Nc2cc(F)cc(NC3CCC(=O)NC3=O)c2)[C@@H](C)C1 (stereo partly drawn) [Example 213, 2-((2S,6R)-4-(2-(4-(3-(4-cyano-3-(trifluoromethyl)phenyl)-5,5-dimethyl-4-oxo-2-thioxoimidazolidin-1-yl)-2-isopropylphenoxy)ethyl)-2,6-dimethylpiperazin-1-yl)-N-(3-(2,6-dioxopiperidin-3-ylamino)-5-fluorophenyl)acetamide] | * (0<Y<=25%) | < 100 nM
CCc1cc(N2C(=S)N(c3ccc(C#N)c(C(F)(F)F)c3)C(=O)C2(C)C)ccc1OCCN1CCN(CC(=O)Nc2cccc(NC3CCC(=O)NC3=O)c2)C[C@@H]1CO (stereo partly shown) [Example 48] | * (0<Y<=25%) | < 100 nM
CCc1cc(N2C(=S)N(c3ccc(C#N)c(C(F)(F)F)c3)C(=O)C2(C)C)ccc1OCCN1CCN(CC(=O)Nc2cc(Cl)cc(NC3CCC(=O)NC3=O)c2)C(C)(C)C1 (stereo not shown) [Example 79, N-(3-chloro-5-(2,6-dioxopiperidin-3-ylamino)phenyl)-2-(4-(2-(4-(3-(4-cyano-3-(trifluoromethyl)phenyl)-5,5-dimethyl-4-oxo-2-thioxoimidazolidin-1-yl)-2-ethylphenoxy)ethyl)-2,2-dimethylpiperazin-1-yl)acetamide] | ** (25%<Y<=35%) | < 100 nM
CC(C)c1cc(N2C(=S)N(c3cnc(C#N)c(C(F)(F)F)c3)C(=O)C2(C)C)ccc1OCCN1C[C@@H](C)N(CC(=O)Nc2cccc(NC3CCC(=O)NC3=O)c2)[C@@H](C)C1 (stereo partly drawn) [Example 180, 2-((2S,6R)-4-(2-(4-(3-(6-cyano-5-(trifluoromethyl)pyridin-3-yl)-5,5-dimethyl-4-oxo-2-thioxoimidazolidin-1-yl)-2-isopropylphenoxy)ethyl)-2,6-dimethylpiperazin-1-yl)-N-(3-(2,6-dioxopiperidin-3-ylamino)phenyl)acetamide] | * (0<Y<=25%) | < 100 nM
C[C@@H]1CN(CCOc2ccc(N3C(=S)N(c4ccc(C#N)c(C(F)(F)F)c4)C(=O)C3(C)C)cc2C2CCC2)C[C@H](C)N1CC(=O)Nc1cccc(NC2CCC(=O)NC2=O)c1 (stereo partly drawn) [Example 259, 2-((2R,6S)-4-(2-(4-(3-(4-cyano-3-(trifluoromethyl)phenyl)-5,5-dimethyl-4-oxo-2-thioxoimidazolidin-1-yl)-2-cyclobutylphenoxy)ethyl)-2,6-dimethylpiperazin-1-yl)-N-(3-(2,6-dioxopiperidin-3-ylamino)phenyl)acetamide] | * (0<Y<=25%) | < 100 nM
C[C@@H]1CN(CC(=O)Nc2cc(C#N)cc(NC3CCC(=O)NC3=O)c2)[C@H](C)CN1CCOc1ccc(N2C(=S)N(c3cnc(C#N)c(C(F)(F)F)c3)C(=O)C2(C)C)cc1C(C)(F)F (stereo partly drawn) [Example 243, N-(3-cyano-5-(2,6-dioxopiperidin-3-ylamino)phenyl)-2-((2R,5R)-4-(2-(4-(3-(6-cyano-5-(trifluoromethyl)pyridin-3-yl)-5,5-dimethyl-4-oxo-2-thioxoimidazolidin-1-yl)-2-(1,1-difluoroethyl)phenoxy)ethyl)-2,5-dimethylpiperazin-1-yl)acetamide] | * (0<Y<=25%) | < 100 nM
C[C@@H]1CN(CCOc2ccc(N3C(=S)N(c4cnc(C#N)c(C(F)(F)F)c4)C(=O)C34CCC4)cc2C(C)(F)F)C[C@H](C)N1CC(=O)Nc1cccc(NC2CCC(=O)NC2=O)c1 (stereo partly drawn) [Example 265, 2-((2S,6R)-4-(2-(4-(7-(6-cyano-5-(trifluoromethyl)pyridin-3-yl)-8-oxo-6-thioxo-5,7-diazaspiro[3.4]octan-5-yl)-2-(1,1-difluoroethyl)phenoxy)ethyl)-2,6-dimethylpiperazin-1-yl)-N-(3-(2,6-dioxopiperidin-3-ylamino)phenyl)acetamide] | * (0<Y<=25%) | < 100 nM
CC1(C)C(=O)N(c2cnc(C#N)c(C(F)(F)F)c2)C(=S)N1c1ccc(OCCN2CCN(CC(=O)Nc3cccc(NC4CCC(=O)NC4=O)c3)CC2)cc1 (stereo not shown) [Example 2, hydrochloride] | ** (25%<Y<=35%) | < 100 nM

— patent US12404241B2 (Celgene Corporation, priority 2018, dated 2025)
